Reference: patent US8536192B2, “6,7-unsaturated-7-carbamoyl substituted morphinan derivative” (priority 2005, dated 2013)
Read-outs that look alike come from different tables or passages of the source.

Legend:
opioid δ receptor = opioid δ receptor (Rattus norvegicus (Rat), UniProt P33533); experiment: Binding assay of opioid δ receptor ([3H]-DADLE, rat cerebrum membrane)
Experimental: (§1) 1) Method of Preparing Membrane Specimen for Binding Assay
(§2) A rat cerebrum (Slc: SD) which had been stored at −80° C. was used. To a cerebrum which had been weighed was added a 20-fold amount of ice-cooled 10 mM Tris-HCl buffer (pH 7.0), and the mixture was homogenized (25000 rpm, 30 seconds) with Histocolon (NITI-ON), and centrifuged at 36600×g for 20 minutes. To the resulting pellet was added 15 ml of the same buffer, and the mixture was treated with Histocolon similarly, and centrifuged. This washing work was performed two times. After centrifugation, to the resulting pellet was added 15 mL of a 50 mM Tris-HCl buffer (pH 7.4), and this was treated with Histocolon, and finally resuspended in a 10-fold amount of the same buffer, which was used as a crude membrane fraction (Life Sci. 48, 111-116, 1991). The prepared membrane specimen was frozen and stored at −80° C., and at an assay, the specimen was rapidly thawed, and diluted to about 900 μg/mL with a 50 mM Tris-HCl buffer (pH 7.4) after the centrifugation and Histocolon treatment, and was used in an experiment. For measuring a protein concentration of the membrane specimen, Micro BCA Protein Assay Kit (PIERCE) was used.
2) Method of δ Receptor Binding Assay and Data Analysis
Into a tube was placed 480 μl of a rat cerebrum membrane fraction to which 100 mM choline chloride, 3 mM MnCl2 and 100 nM DAMGO had been added, and this was incubated at 25° C. for 2 hours. […] After washing, the filter was transferred to a mini vial for liquid scintillation counter, 5 mL of a scintillator (Cleasol I) was added, this was allowed to stand overnight, and the radioactivity was measured for 3 minutes with a liquid scintillation counter Tri-Carb 2200CA (PACKARD).

opioid μ receptor = opioid μ receptor (Rattus norvegicus (Rat), UniProt P33535); experiment: Binding assay to opioid μ receptor ([3H]-DAMGO, rat cerebrum membrane)
Experimental: as §1
as §2, with “(pH 7.0), the mixture” for “(pH 7.0), and the mixture”, “(pH 7.4), this was” for “(pH 7.4), and this was”, “Histocolon, and this was finally resuspended” for “Histocolon, and finally resuspended”, “and at a test, the specimen” for “and at an assay, the specimen”
2) Method of μ Receptor Binding Assay and Data Analysis
After washing, the filter was transferred to a mini vial for liquid scintillation counter, 5 mL of a scintillator (Cleasol I) was added, and this was allowed to stand overnight, and the radioactivity was measured for 3 minutes with a liquid scintillation counter Tri-Carb 2200CA (PACKARD).

[1] = tested on: carbon powder transport of inhibitory activity by morphine; experiment: Mouse carbon powder transport assay (antagonism of morphine-inhibited small intestine transport); type: in vivo; conditions: sc, 1 h, test compound 3 mg/kg subcutaneously, 15 minutes before morphine 3 mg/kg
Experimental: 1) Preparation of Test Diet (Carbon Powder)
Using a 10 w/v % arabic gum aqueous solution, a 5 w/v % active carbon solution was prepared, which was used as a test diet.
A ddY line male mouse (5 to 6 weeks old) was used. The mouse was fasted from about 20 or more hours before assay initiation, and water was given ad lib.
The test compound was dissolved in a solvent (DMAA/Solutol/5% meglumine=15/15/70).
Morphine hydrochloride was dissolved in a physiological saline. The test compound, the above solvent and morphine were all administered at a liquid amount of 10 mL/kg.
The test compound 3 mg/kg (test compound administration group) or the solvent (solvent administration group) were subcutaneously administered and, after 15 minutes, amount of 3 mg/kg of morphine was administered to all groups. As a control group, the solvent was subcutaneously administered and, after 15 minutes, a physiological saline was administered.
The test diet 10 mL/kg was orally administered at 15 minutes after administration of morphine. At thirty minutes after administration of the test diet (60 minutes after administration of the test substance), all mice were isolated from esophagus to an ileocecal part near a stomach cardia part. A distance from pyloric part of the stomach to an ileocecal part (full length of small intestine) and a distance until a carbon powder reaching front part (carbon powder movement distance) were measured. The antagonistic activity on the carbon powder transport of inhibitory activity by morphine was calculated as MPE (%) using the following equation. Transport rate (%)=(carbon powder movement distance)/full length of small intestine (cm))×100 M.P.E. (%)={(small intestine transport rate (%) of each individual of test compound administration group−average small intestine transport rate (%) of solvent administration group)/(average small intestine transport rate (%) of control group−average small intestine transport rate (%) of solvent administration group)}×100

COC(=O)C(C)(C)NC(=O)C1=C(O)[C@@H]2Oc3c(O)ccc4c3[C@@]23CCN(CC2CC2)[C@H](C4)[C@]3(O)C1 [Compound I-49]
Ki (opioid δ receptor; [3H]-DADLE, rat cerebrum membrane fraction, read-out: Ki): 3.99 nM
Ki (opioid μ receptor): 16.5 nM
percent antagonism of morphine-inhibited transport (M.P.E.) at 3 mg/kg [1]: 80%

COc1cc(NC(=O)C2=C(O)[C@@H]3Oc4c(O)ccc5c4[C@@]34CCN(CC3CC3)[C@H](C5)[C@]4(O)C2)ncn1 [Compound I-243]
Ki (opioid δ receptor): 5.2 nM
Ki (opioid μ receptor): 5.28 nM
percent antagonism of morphine-inhibited transport (M.P.E.) at 3 mg/kg [1]: 52.6%
